As a reminder, the IC50 is the point on the concentration scale where inhibition reaches its midpoint. Broadly, the inhibition is how much of the control response was suppressed.

Data on 10 compounds can be found in ChEMBL document CHEMBL3860079, “Design and synthesis of novel HDAC8 inhibitory 2,5-disubstituted-1,3,4-oxadiazoles containing glycine and alanine hybrids with anti cancer activity” (Bioorg Med Chem, 2016).

Assay [1] is described as follows: Cytotoxicity against human MDA-MB-231 cells assessed as reduction in cell viability measured after 24 hrs by MTT assay. In kind it is functional, cell-based. Particulars: MDA-MB-231, 24 h. (In general: Formazan colour is commonly taken as a measure of viable cells.)
Assay [2] deals with T1, Histone deacetylase 8 (Homo sapiens, UniProt Q9BY41).
T1 sequence (Q9BY41 whole entry): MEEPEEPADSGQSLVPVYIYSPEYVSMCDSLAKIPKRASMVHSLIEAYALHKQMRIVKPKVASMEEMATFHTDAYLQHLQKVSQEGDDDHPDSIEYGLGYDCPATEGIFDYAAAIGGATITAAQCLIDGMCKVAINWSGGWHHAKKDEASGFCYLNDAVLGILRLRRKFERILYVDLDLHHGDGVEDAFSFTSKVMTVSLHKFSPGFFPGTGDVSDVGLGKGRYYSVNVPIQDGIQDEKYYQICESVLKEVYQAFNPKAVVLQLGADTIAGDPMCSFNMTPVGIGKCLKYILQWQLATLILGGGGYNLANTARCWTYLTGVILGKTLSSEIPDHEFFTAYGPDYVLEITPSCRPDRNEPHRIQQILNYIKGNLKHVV
As to the kind of experiment: Inhibition of recombinant human full length GST-tagged HDAC8 expressed in Escherichia coli DH5alpha (DE3) assessed as inhibition of deacetylation activity using Fluor-de-Lys as substrate measured after 15 mins by fluorimetric assay.

Assay [3] addresses T2, Histone deacetylase 3 (Homo sapiens, UniProt O15379). As to the kind of experiment: Inhibition of HDAC3 in human MDA-MB-231 cells assessed as inhibition of deacetylation activity at 100 nM using Fluor-de-Lys as substrate measured after 15 mins by fluorimetric assay. It counts as cell-based.
Assay [4] deals with T3, Histone deacetylase 2 (Homo sapiens, UniProt Q92769). In words: Inhibition of HDAC2 in human MDA-MB-231 cells assessed as inhibition of deacetylation activity using Fluor-de-Lys as substrate measured after 15 mins by fluorimetric assay. In kind it is cell-based.
T3 sequence (Q92769 whole entry): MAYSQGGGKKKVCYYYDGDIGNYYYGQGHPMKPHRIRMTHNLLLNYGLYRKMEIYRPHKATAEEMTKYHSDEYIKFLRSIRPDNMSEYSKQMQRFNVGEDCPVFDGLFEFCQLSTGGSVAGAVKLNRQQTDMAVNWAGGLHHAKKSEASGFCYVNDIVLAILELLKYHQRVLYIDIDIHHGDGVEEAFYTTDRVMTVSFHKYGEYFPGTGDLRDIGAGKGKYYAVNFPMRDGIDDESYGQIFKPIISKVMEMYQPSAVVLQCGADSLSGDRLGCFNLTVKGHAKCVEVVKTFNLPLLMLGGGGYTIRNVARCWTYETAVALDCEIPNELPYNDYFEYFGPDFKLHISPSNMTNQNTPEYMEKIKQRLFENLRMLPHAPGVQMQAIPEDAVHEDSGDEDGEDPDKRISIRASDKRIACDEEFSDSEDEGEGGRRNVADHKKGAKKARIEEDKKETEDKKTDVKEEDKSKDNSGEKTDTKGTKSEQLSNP
Assay [5] addresses T4, Histone deacetylase 1 (Homo sapiens, UniProt Q13547). As to the kind of experiment: Inhibition of HDAC1 in human MDA-MB-231 cells assessed as inhibition of deacetylation activity at 100 nM using Fluor-de-Lys as substrate measured after 15 mins by fluorimetric assay. In kind it is cell-based.
The species named for assay [6] is Homo sapiens. In words: Selectivity ratio of IC50 for human full length GST-tagged HDAC8 expressed in Escherichia coli DH5alpha (DE3) to IC50 for HDAC2 in human MDA-MB-231 cells.
The target in assay [7] is T2, Histone deacetylase 3. In words: Inhibition of HDAC3 in human MDA-MB-231 cells assessed as inhibition of deacetylation activity using Fluor-de-Lys as substrate measured after 15 mins by fluorimetric assay. In kind it is cell-based.
The species entered for assay [8] is Homo sapiens. As to the kind of experiment: Selectivity ratio of IC50 for human full length GST-tagged HDAC8 expressed in Escherichia coli DH5alpha (DE3) to IC50 for HDAC1 in human MDA-MB-231 cells.
For assay [9], the target named is T3, Histone deacetylase 2. In words: Inhibition of HDAC2 in human MDA-MB-231 cells assessed as inhibition of deacetylation activity at 100 nM using Fluor-de-Lys as substrate measured after 15 mins by fluorimetric assay. In kind it is cell-based.
Assay [10] has as its target T4, Histone deacetylase 1. As to the kind of experiment: Inhibition of HDAC1 in human MDA-MB-231 cells assessed as inhibition of deacetylation activity using Fluor-de-Lys as substrate measured after 15 mins by fluorimetric assay. In kind it is cell-based.
Assay [11] addresses T5, Histone deacetylase 8 (Homo sapiens) (UniProt Q9BY41).
T5 sequence (whole entry): T1 sequence (Q9BY41 whole entry)
In words: Inhibition of human HDAC8 immunoprecipitated from MDA-MB-231 cell lysates assessed as inhibition of deacetylation activity at 100 nM using Fluor-de-Lys as substrate measured after 15 mins by fluorimetric assay.

A value given as a limit tells only on which side of the number the result lay.

T2 sequence (O15379 whole entry): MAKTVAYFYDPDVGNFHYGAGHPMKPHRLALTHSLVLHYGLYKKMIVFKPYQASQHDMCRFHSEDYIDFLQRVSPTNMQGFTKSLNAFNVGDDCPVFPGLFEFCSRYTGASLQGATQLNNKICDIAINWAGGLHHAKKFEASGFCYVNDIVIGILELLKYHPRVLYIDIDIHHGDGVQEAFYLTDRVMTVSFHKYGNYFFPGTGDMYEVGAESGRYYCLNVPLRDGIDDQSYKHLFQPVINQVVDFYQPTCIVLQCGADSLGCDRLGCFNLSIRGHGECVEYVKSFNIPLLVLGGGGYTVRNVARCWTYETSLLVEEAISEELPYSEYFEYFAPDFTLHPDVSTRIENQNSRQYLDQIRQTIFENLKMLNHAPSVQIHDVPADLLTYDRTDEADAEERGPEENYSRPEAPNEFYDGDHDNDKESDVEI
T4 sequence (Q13547 whole entry): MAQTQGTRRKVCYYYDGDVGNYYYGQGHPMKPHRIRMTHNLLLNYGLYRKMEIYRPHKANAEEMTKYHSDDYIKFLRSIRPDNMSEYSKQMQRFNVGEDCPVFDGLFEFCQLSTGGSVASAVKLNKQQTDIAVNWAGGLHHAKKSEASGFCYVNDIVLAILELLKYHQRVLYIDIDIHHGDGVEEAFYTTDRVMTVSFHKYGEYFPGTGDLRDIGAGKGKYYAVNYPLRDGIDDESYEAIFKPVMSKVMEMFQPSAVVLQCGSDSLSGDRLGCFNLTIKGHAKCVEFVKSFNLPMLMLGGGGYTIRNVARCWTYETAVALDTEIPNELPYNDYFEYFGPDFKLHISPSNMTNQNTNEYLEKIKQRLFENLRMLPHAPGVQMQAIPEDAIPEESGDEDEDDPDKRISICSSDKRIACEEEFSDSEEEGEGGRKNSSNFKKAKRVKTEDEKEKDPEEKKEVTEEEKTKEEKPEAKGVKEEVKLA

Take `Cc1ccc(-c2nnc(CNC(=O)[C@@H](C)N)o2)cc1`: the IC50 in assay [1] is 254 nM; in assay [2], 121 nM.
On to `COc1ccc(-c2nnc(CNC(=O)CN)o2)cc1`, for which the IC50 in assay [1] is 276 nM; in [2], 142 nM.
Take `COc1ccc(-c2nnc(CNC(=O)[C@@H](C)N)o2)cc1`: the values for the IC50 in [1] and in assay [2] were 295 nM and 153 nM, respectively.
With `NCC(=O)NCc1nnc(-c2ccc(F)cc2)o1`, the IC50 in assay [1] came out at 254 nM; in [2], 135 nM.
Take `NCC(=O)NCc1nnc(-c2ccccc2)o1`: the IC50 in [1] worked out at 283 nM; in [2] it was 155 nM.
On to `C[C@@H](N)C(=O)NCc1nnc(-c2ccccc2)o1`, for which the IC50 was 230 nM in [1]; 98 to 100 nM in [2]; 135 nM in assay [4]; over 10000 nM in assay [7]; 260 nM in [10]. The inhibition in assay [3] was 0%; in assay [5], 30%; in assay [9], 19%; in [11] it was 53%. Moreover, the Ratio IC50 in assay [6] was found to be 0.74; in assay [8], 0.38.
On to `NCC(=O)NCc1nnc(-c2ccc([N+](=O)[O-])cc2)o1`, for which the half-inhibitory concentration (IC50) is 276 nM in assay [1] and 134 nM in [2].
Consider `C[C@@H](N)C(=O)NCc1nnc(-c2ccc(F)cc2)o1`, for which the IC50 in [1] amounted to 247 nM; in assay [2], 116 nM.
With `C[C@@H](N)C(=O)NCc1nnc(-c2ccc([N+](=O)[O-])cc2)o1`, the IC50 was found to be 261 nM in assay [1] and 127 nM in assay [2].
Regarding `Cc1ccc(-c2nnc(CNC(=O)CN)o2)cc1`, the IC50 in [1] is 260 nM; in assay [2], 139 nM.
